Values quoted from earlier work as cited in patent publication US6638906B1, “Amphiphilic polymers and polypeptide conjugates comprising same” (Nobex Corporation, priority 1999, dated 2003).

What was measured:
[1] = tested on: food intake; conditions: infused into the duodenum of rats with trypsin inhibitors
[2] = tested on: STC-1 cells
[3] = tested on: native CCK cells; conditions: versus vehicle/basal secretion
[4] = tested on: pancreatic protein output; conditions: infused into the duodenum of rats
[5] = tested on: CCK release; conditions: relative to LCRF

luminal cholecystokinin releasing factor [Native LCRF]
effect on food intake [1]: causes a reduction of food intake
increase in CCK secretion [2]: ~300%
increase in CCK secretion [3]: ~300%
dose-response of pancreatic protein output [4]: biphasic dose-response of curve of pancreatic protein output is observed, with higher doses of LCRF leading to decreased pancreatic protein output

B1: diazepan binding inhibitor: peptide secreted into the intestines found to stimulate CCK release (protein, UniProt P07108 2-87, looked up)
Acyl-CoA-binding protein: SQAEFEKAAEEVRHLKTKPSDEEMLFIYGHYKQATVGDINTERPGMLDFTGKAKWDAWNELKGTSKEDAMKAYINKVEELKKKYGI
potency for stimulating CCK release, fold less than LCRF [5]: 100-1,000 fold

B2: monitor peptide: peptide secreted into the intestines that controls CCK release by positive feedback regulation (protein, UniProt P09655 19-79, looked up)
Serine protease inhibitor …: GNPPAEVNGKTPNCPKQIMGCPRIYDPVCGTNGITYPSECSLCFENRKFGTSIHIQRRGTC
potency for stimulating CCK release, fold less than LCRF [5]: 6 fold
